The numbers were not newly measured in US20060014804A1, “Cyanoguanidine prodrugs” (Leo Pharma A/S, priority 2002, published 2006), which cites them from elsewhere.

Structures are written as SMILES.

Series [1] relates to human tumour cells. The conditions noted are these: compared with daunorubicin and paclitaxel.
Series [2] has as its system human tumour cells. The conditions noted are these: nude mice transplanted with human tumour cells, also paclitaxel-resistant tumour cells.
Series [3] deals with normal human endothelial cells.
Series [4] has as its system human lung and breast cancer cell lines.
Series [5] has as its system human lung cancer tumour xenograft. Particulars: nude mice.

Consider `N#CNC(=Nc1ccncc1)NCCCCCCOc1ccc(Cl)cc1` [N-(6-(4-chlorophenoxy)hexyl)-N′-cyano-N″-(4-pyridyl)guanidine], for which the potency in vitro result in the series on human tumour cells [1] is “comparable to that of the reference cytostatic agents daunorubicin and paclitaxel”. The “antitumour activity in vivo” value in the series with human tumour cells [2] was “substantial antitumour activity”. In series [3], the “antiproliferative activity on normal human endothelial cells” value was “considerably less antiproliferative activity”. In addition, in series [4], the “antiproliferative activity in vitro” value is “high antiproliferative activity in vitro”. The “antitumour activity in the nude mouse model” value in series [5] is recorded as “potent antitumour activity”.
